Test results from US8906897B2, “Antimicrobial agents based on hemin derivatives” (Obschestvo S Ogranichennoi Otvetstvennostiyu …, priority 2009, dated 2014).

Tests used:
human leukocytes = assay: Cytotoxic activity against human leukocytes; conditions: for Death of leukocytes in the presence of 1 mM of compound / concentration at which a weak toxic effect on leukocytes appears: 3 h incubation; for toxic effect on human blood leukocytes (in words): concentrations of up to 1 mM, 3 h
Procedure: Total leukocytes were isolated from human blood by unforced sedimentation using freshly collected venous blood from a healthy donor.
Blood (10 mL) added with 10 units/mL heparin was exposed for 2.5 h in the dark at a temperature of 15 to 18° C. A light-colored liquid supernatant (4 mL) was collected over the layer of sedimenting erythrocytes, washed three times with balanced Hanks's salt solution, and resuspended in the RPMI-1640 medium (added with 8% fetal bovine serum, 2 mM L-glutamine, and 10 mM HEPES; hereinafter, the complete medium).
The concentrations of leukocytes and erythrocytes in the suspension were determined by counts in Goryachev's chamber, after which the suspension was adjusted to a leukocyte concentration of (1.0±0.1)×10^6 cells/mL with the complete medium.
To determine the cytotoxicity of the tested compounds for human leukocytes, the cell suspension was transferred to wells of sterile 96-well plates, tested compounds were added with serial twofold dilutions (the range of tested concentrations was from 3.2 to 100 μM for GrD and gramicidin S; from 8 to 500 μM for compound XIII; and from 8 to 1000 μM for compounds V, VI, VII, VIII, IX, X, XI, XIV, XV, XIX, and Hem), and the mixture was carefully stirred. The experiment was performed in two replicas.
As controls served cells added with an equivalent amount of the solvent in which tested compounds were prepared, namely: water for compounds VII and X; an aqueous solution of DMSO for compounds V, VI, VIII, and IX; and DMSO for GrD, gramicidin S, Hem, XI, XIII, XIV, XV, and XIX. An additional control was an additive-free leukocyte suspension.
Cells were incubated with tested compounds for 3 h (37° C., 5% CO2, 100% humidity). Leukocyte death values were quantified using fluorescence microscopy. Staining with propidium iodide (it permeates only into dead cells nuclei) and Hoechst 33342 (it stains all nuclei) was used to recognize dead and living cells. Cells were incubated for 15 min in plates with propidium iodide and Hoechst 33342 (37° C., 5% CO2), and then the plates were placed under a microscope for analysis.
The dead cell fraction was derived from the fluorescence images of cells obtained in the blue (Hoechst 33342) and red (propidium iodide) spectral ranges using an Axio Observer (Zeiss, Germany) fluorescence microscope equipped with a 10× objective lens (Plan-Neofluar 10×/0.3). The following sets of fluorescence filters were used. For propidium iodide: a 530/585-nm bandpass excitation filter, a 600-nm cut-off dichroic minor, and a 615-nm longpass barrier filter for analysis. For Hoechst 33342: a 359/372-nm bandpass excitation filter, a 395-nm cut-off dichroic mirror, and a 397-nm longpass barrier filter for analysis.
A digital camera recorded three types of cell images: (a) an image in the transmitted white light; (b) a blue fluorescence image obtained with UV excitation, and (c) a red fluorescence image obtained with green light excitation. At least four fields of view were photographed per well in various regions of a well.

[1] = test system: Staphylococcus aureus 209P; assay: Antibacterial activity (MIC/MBC), serial dilutions in liquid MH medium; assay type: cell-based; conditions: for MIC: 20 h, MH medium
Procedure: (§1) The antibacterial activity of compounds was determined against Bacillus subtilis BKM B-501, Staphylococcus aureus 209P, Enterococcus faecalis BKM B-871, and Micrococcus luteus BKM Ac-2230 strains (acquired from the All-Russia Collection of Microorganisms at the Institute for Biochemistry and Physiology of Microorganisms, Russian Academy of Sciences). The main parameters characterizing the antibacterial activity are the minimal inhibitory concentration (MIC) and minimal bactericidal concentration (MBC). […] MBC is the least concentration that causes the death of all cells.
(§2) MIC was quantified by inhibiting culture growth in a liquid medium with serial dilutions of compounds using a modified procedure [Amsterdam, D., “Susceptibility Testing of Antimicrobials in Liquid Media,” in Antibiotics in Laboratory Medicine, Ed. by Lorian, V., 4th ed., Baltimore: Williams and Wilkins, 1996, pp. 52-111].
(§3) Bacteria were cultured and tests were carried out on an MH liquid medium (Mueller-Hinton medium: a dry extract of beef broth, 4 g/L; starch, 1.5 g/L; casein hydrolyzate, 17.5 g/L; Sigma-Fluka Catalog No. 70192) at 37° C., 100% humidity, and under stirring. Cultures (4th through 7th receeding post-thawing) in the exponential growth phase were used for tests.
(§4) Therefore, a correction for absorption was applied in estimating the optical density of bacterial suspensions for each compound with account for its concentration in the well.
(§5) The protocol for experimental antibacterial activity determination for tested compounds was as follows. A cryovial with the test strain culture (Bacillus subtilis BKIVI B-501, Staphylococcus aureus 209P, Enterococcus faecalis BKM B-871, or Micrococcus luteus BKIVI Ac-2230) in a medium with 7% DMSO stored in liquid nitrogen, was rapidly defrosted, and 1.5 mL of the fresh MH medium was inoculated with 100 μL of the cell suspension. Cells were grown for one day at 37° C. and stirred on an orbital shaker at 150 rpm. The morphologic features of the strain and the absence of contamination with foreign bacteria were verified by: (a) inoculation on an agarized (15 g/L agar) MH medium and observation of the shape and color of the grown colonies and (b) examination of characteristic morphologic features under a microscope (Mikmed-2, LOMO, Russia) equipped with a 40× objective lens. Further bacteria were cultured in 1 mL of the liquid MH medium at 37° C. under stirring. The cells were reseeded every day. Cell cultures were used in tests starting with 3rd reseeding and ending with 6th one.
(§6) For testing, 5 μL of a bacterial suspension in the stationary growth phase was transferred to 1 mL of a sterile MH medium and incubated until the exponential growth phase was attained (3 to 5 h, 37° C., stirring at 150 rpm). To estimate the microorganisms concentration, the optical density (A) of the resulting bacterial culture was measured at a wavelength of 595 nm. The value of A=0.2 measured from a […] portion of the cell suspension in a 96-well plate, with a correction for the medium absorption applied, was set to correspond to 4×10^8 cells/mL for both strains used. Taking into account the cell concentration measurements, the suspension was diluted with the MH medium to a concentration of from 5×10^4 to 1×10^5 cells/mL and transferred to a sterile 96-well plate in an amount of 100 μL, per well. Then, the cells were added with tested compounds and twofold serial dilutions of these compounds in plate's wells were made.
(§7) The controls used were: 100 μL of an additive-free bacterial culture (four wells); a bacterial culture added with 1% DMSO or water in the same volume as in the wells with the maximal concentration of the tested compounds (four wells); and 100 μL of the sterile MH medium without bacteria and without tested compounds for control of occasional contamination in the plate (four wells).

[2] = test system: Micrococcus luteus BKM Ac-2230; assay: as above; assay type: cell-based; conditions: for MIC: 20 h, MH medium
Procedure: as §1, §2, §3, §4, §5, §6, §7

[3] = test system: Enterococcus faecalis BKM B-871; assay: as above; assay type: cell-based; conditions: for MIC: 20 h, MH medium
Procedure: as §1, §2, §3, §4, §5, §6, §7

[4] = test system: Bacillus subtilis BKM B-501; assay: as above; assay type: cell-based; conditions: for MIC: 20 h, MH medium
Procedure: as §1, §2, §3, §4, §5, §6, §7

[5] = Solubility of tested agents (water / DMSO); conditions: water or DMSO
Candida albicans No. 927 = assay: Antifungal activity, culture growth with pH indicator; assay type: cell-based; design: key to Test culture growth at various dilutions of the agent: (−) No growth; the indicator is blue; (±) Weak growth; the indicator is yellow, but the precipitate of grown cells looks as a diffuse spot; (+) Strong growth; the indicator is yellow, and the cell precipitate looks as a compact spot
Procedure: The subjects of action were Cryptococcus neoformans No. 3465 museum strain cells and Candida albicans No. 927 museum strain cells grown for one day on a glucose-peptone-yeast medium at 32° C. The reference compounds were the following antimycotics: pimafucin, amphotericin, and fluconazole.
Experiments were carried out on round-bottomed 96-well plates (Lenmedpolimer) in two replicas. To the first column (0), added was 10 μL of the stock solution of a water-soluble agent with concentrations of 10^−2 to 10^−3 mol/L; to the second column, added was also the same 10 μL plus 10 μL of the solvent corresponding to the given compound, suspended, 10 μL was transferred to the next well, and so on to the 8th well of the row. Stock solutions of water-insoluble compounds of general formula (I) (compounds V, VIII, XII, XIII, XIV, and hemin) were prepared in DMSO and were diluted with DMSO and the medium. DMSO concentrations in the reaction mixture in a well were ≦5%.
Then, to every well added was 190 μL of a Cr. neoformans cell culture suspension in a synthetic nutritional medium (so that the final cell concentration was approximately 10^3 CFU/mL), this medium containing Bromocresol Blue as a pH-indicator (pH: 5.5; indicator color: blue). As pH reduced to 4.5, the indicator in the culture changed its color to yellow, thereby indicating fungal cell growth. The synthetic medium comprised the following components: salts, amino acids, microelements, vitamins, an antibiotic, and glucose (30 components altogether) [Yarrow, D., “Methods for the Isolation, Maintenance and Identification of Yeasts,” in: The Yeasts. A Taxonomic Study, Ed. by Kurtsman, C. P, and Fell, M., Elsevier, 1998, pp. 77-100]. After being inoculated with a Cr. neoformans cell suspension, the plate was incubated at 32° C. for 1 h with stirring, then transferred to a stationary thermostat and incubated for two and five days at 27° C. After being inoculated with a C. albicans cell suspension, the plates were incubated for 1 h at 32° C. with stirring, then transferred to a stationary thermostat and incubated for one and four days at 27° C.

| Molecule | Death of leukocytes in the presence of 1 mM of compound (human leukocytes) [%] | toxic effect on human blood leukocytes (in words) (human leukocytes) | MBC [1] | MIC [1] [µM] | MBC [2] [µM] | MIC [2] [µM] | MBC [3] | MIC [3] [µM] | MBC [4] | MIC [4] [µM] | concentration at which a weak toxic effect on leukocytes appears (human leukocytes) [µM] | solubility (in words) [5] | Test culture growth at various dilutions of the agent (Candida albicans No. 927; dilution 0: 1 × 10^−4 M) | Test culture growth at various dilutions of the agent (Candida albicans No. 927; dilution : 2 of 1 × 10^−4 M) | Test culture growth at various dilutions of the agent (Candida albicans No. 927; dilution : 4 of 1 × 10^−4 M) | Test culture growth at various dilutions of the agent (Candida albicans No. 927; dilution : 8 of 1 × 10^−4 M) | Test culture growth at various dilutions of the agent (Candida albicans No. 927; dilution : 16 of 1 × 10^−4 M) | Test culture growth at various dilutions of the agent (Candida albicans No. 927; dilution : 32 of 1 × 10^−4 M) | Test culture growth at various dilutions of the agent (Candida albicans No. 927; dilution : 64 of 1 × 10^−4 M) |
| --- | --- | --- | --- | --- | --- | --- | --- | --- | --- | --- | --- | --- | --- | --- | --- | --- | --- | --- | --- |
| 6(7)-Mono(Arg-Gly-Asp)-Protohemin IX [Compound XI] | 8.6 ± 0.4 | fully due to the toxic effect of the solvent | Not reached | 12.5 | 200 | 50 | Not reached | 100 | 25 ± 7 µM | 12.5 ± 4 | – | – | – | – | – | – | – | – | – |
| C=CC1=C(C)c2cc3[n-]c(cc4nc(cc5[n-]c(cc1n2)c(C)c5CCC(=O)NCCc1c[nH]cn1)C(CCC(=O)NCCc1c[nH]cn1)=C4C)c(C)c3C=C.[Cl-].[Fe+3] [Compound XIX, 6,7-bis-Histaminyl-Protohemin IX] | 13 ± 1 | – | Not reached | 200 | 25 | 25 | Not reached | 200 | Not reached | 100 ± 25 | ~1000 | – | – | – | – | – | – | – | – |
| C=CC1=C(C)c2cc3[n-]c(cc4nc(cc5[n-]c(cc1n2)c(C)c5CCC(=O)NCC(=O)OC)C(CCC(=O)NCC(=O)OC)=C4C)c(C)c3C=C.[Cl-].[Fe+3] [Compound XV, 6,7-Bis(N^α-Glycyl Methyl Ester)-Protohemin IX] | 13 ± 1 | – | – | – | 6.5 | 1.6 | – | – | 25 ± 7 µM | 12.5 ± 4 | ~1000 | DMSO-soluble | – | – | – | – | – | – | – |
| C=CC1=C(C)c2cc3[n-]c(cc4nc(cc5[n-]c(cc1n2)c(C)c5CCC(=O)NC(CO)CO)C(CCC(=O)NC(CO)CO)=C4C)c(C)c3C=C.[Cl-].[Fe+3] [Compound XVI, Protohemin IX 6,7-bis-N-(1,3-Dihydroxypropan-2-yl)amide] | – | – | >200 µM | >200 | >200 | >200 | >200 µM | >200 | >200 µM | >200 | – | – | – | – | – | – | – | – | – |
| C=CC1=C(C)c2cc3[n-]c(cc4nc(cc5[n-]c(cc1n2)c(C)c5CCC(=O)NCC(O)CO)C(CCC(=O)NCC(O)CO)=C4C)c(C)c3C=C.[Cl-].[Fe+3] (stereo not shown) [Compound XVII, Protohemin IX 6,7-bis-N-(2,3-Dihydroxypropyl)amide] | – | – | >200 µM | >200 | >200 | >200 | >200 µM | >200 | >200 µM | >200 | – | – | – | – | – | – | – | – | – |
| C=CC1=C(C)c2cc3[n-]c(cc4nc(cc5[n-]c(cc1n2)c(C)c5CCC(=O)NCCC(=O)NCCc1c[nH]cn1)C(CCC(=O)NCCC(=O)NCCc1c[nH]cn1)=C4C)c(C)c3C=C.[Cl-].[Fe+3] [IX] | 3.1 ± 0.3 | did not cause the death | 400 µM | 100 | 25 | – | >400^3 μM | 200 | 100 ± 25 µM | 50 ± 13 | – | – | – | – | – | – | – | – | – |
| Protohemin IX 6(7)-Mono[Cyclo(Orn-Leu-D-Phe-Pro-Val)2])amide [Compound XIII] | 14 ± 2 | – | – | – | – | – | – | – | – | – | – | water-insoluble | ± | ± | + | + | + | + | + |
